Measured values: US10730892B2, “Homoallylamines as formaldehyde-responsive triggers” (The Regents of the University of California, priority 2015, dated 2020)
“And” between values parts separate entries of the source, which are not always exact repeats. Equal values may be shown once. Read-outs that look alike come from different tables or passages of the source.

Experiments:
NS1 cells = conditions: 37° C., 3 hrs
Description: (§1) Nuclear magnetic resonance (NMR) spectra were recorded on Varian 400 or 500 MHz spectrometers at 25° C. Chemical shifts are reported in ppm (δ) and are referenced to residual protic peaks. The following abbreviations are used to describe coupling constants: singlet (s), doublet (d), triplet (t), quartet (q), doublet doublet (dd), doublet triplet (dt), doublet quartet (dq), doublet doublet triplet (ddt), multiplet (m), and broad singlet (bs). IR spectra were recorded with a PerkinElmer Spectrum Two infrared (IR) spectrometer. High-resolution mass spectra were acquired with a Waters Q-TOF Ultima ESI mass spectrometer and a Waters Synapt G2-Si ESI/LC-MS mass spectrometer. UV-visible spectra were recorded on a Cary 60 spectrometer. Fluorescence spectra were acquired on a QuantaMaster-400 scanning spectrofluorometer with micro fluorescence quartz cuvettes (Science Outlet). Flow cytometry was performed on a BD Biosciences LSR II (San Jose, Calif., USA), and the data were analyzed as described using FACSDiva software.
(§2) HEK293TN cells were obtained from Prof. Paul Hergenrother (UIUC, Chemistry) and cultured in phenol-red free Dulbecco's modified eagle medium (DMEM, Corning) supplemented with 10% fetal bovine serum (FBS, Sigma Aldrich), and 1% penicillin/streptomycin (Corning). Neuroscreen-1 cells were obtained from Prof. Kai Zhang (UIUC, Biochemistry) and cultured in Ham's F-12K medium (Sigma Aldrich) supplemented with 15% horse serum (Hyclone), 2.5% fetal bovine serum (FBS, Sigma Aldrich), and 1% penicillin/streptomycin (Corning). Cells were incubated at 37° C. and 5% CO2. One day before imaging, cells were passed and plated on 8-well chambered coverglasses (Lab-Tek) at a density of 40,000 cells per mL (or 20,000 cells per well). Cells would reach 70-80% confluency before imaging. […] Samples of HEK293TN and NS1 cells for flow cytometry were prepared by passaging and seeding each well of a 6-well cluster culture dish (Cyto-One) with 300,000 cells one day before experiments. […] Stained cells were aspirated and serum-free DMEM added. Subsequently, a 10× concentrated FA solution was added to give a final concentration of 1.0 mM. 2.5 mM and 5 mM. After incubation cells with FA, the media was removed and replaced with serum-free DMEM. Finally, cells were trypsinized, pelleted via centrifugation, resuspended in phosphate-buffered saline (PBS) for flow cytometric analysis.

HEK293TN cells [1] = conditions: 5 mM FA, 37° C., 3 hrs
Description: as §1, §2

[2] = tested on: Neuroscreen-1 (NS1) cells
Description: FIG. 12 depicts live-cell imaging of NS1 cells. […] Cells were irradiated with the 633 nm HeNe laser set at 3% power with a pinhole size of 1 airy unit. The emission was collected between 645 and 800 nm. Scale bar represents 20 μm. Pseudo-coloring represents intensity distribution from highest intensity indicated by white to the lowest intensity designated by black.
FIG. 13 depicts quantification of observed fluorescence intensity by confocal imaging in NS1 cells after incubation with 1 mM, 2.5 mM or 5 mM FA for 1 (light grey bars), 2 (dark grey bars) and 3 h (black bars). A Ham's F-12K vehicle was added to control cells which was normalized to 1 (white bars). […] For each condition, a minimum of 5 images were averaged (n>5). Errors represent standard deviation.
FIG. 20 depicts quantification of data obtained from confocal microscopy images acquired by irradiation of NS1 cells treated with a vehicle control, 0.25 mM and 0.5 mM FA at 37° C. for 3 hrs with the 633 nm HeNe laser. […] For each condition, a minimum of 5 images were averaged (n>5). Errors represent standard deviation.
as §2
(§3) Prior to imaging, cells were allowed to recover in FA-free buffer for 30 min. […] Because FA is a powerful fixative, cell viability assays were performed to determine the cytotoxicity of FA under experimental conditions. A dye exclusion protocol was employed, utilizing trypan blue to selectively stain and distinguish dead cells from those that were viable. […] To further verify that the cell populations under investigation were indeed alive, DAPI, a cell permeable nuclear and chromosome counterstain, was employed to identify intact nuclei (FIG. 16).
For example, semicarbazide-sensitive amine oxidase (SSAO) is primarily localized to the plasma membrane (Andres et al., J. Histochem. Cytochem. 2001, 49:209). Thus, both HEK293TN and NS1 cells were costained with ER-Tracker Green, LysoTracker Green DND-26, and MitoTracker Green FM, fluorescent indicators that are known to selectively stain the endoplasmic reticulum, lysosome, and mitochondria, respectively in almost all cell types (FIG. 17A and FIG. 17B).

HEK293TN cells [3] = tested on: HEK293TN cells
Description: FIG. 9 depicts live-cell imaging of HEK293TN cells. […] Cells were irradiated with the 633 nm HeNe laser set at 3% power with a pinhole size of 1 airy unit. The emission was collected between 645 and 800 nm. Scale bar represents 20 μm. Pseudo-coloring represents intensity distribution from highest intensity indicated by white to the lowest intensity designated by black.
FIG. 10 depicts the quantification of observed fluorescence intensity by confocal imaging in HEK293TN cells after incubation with 1 mM, 2.5 mM or 5 mM FA for 1 (light grey bars), 2 (dark grey bars) and 3 hrs (black bars). A DMEM vehicle was added to control cells which was normalized to 1 (white bars). […] For each condition, a minimum of 5 images were averaged (n>5). Errors represent standard deviation.
as §2, §3

[4] = Fluorescence properties of compounds 3, 4, 5 and FP1 (Table 1); type: physicochemical
Source text: Such red-shifted fluorophores are desirable because of low autofluorescence, minimal phototoxicity, and negligible interference from biomolecules when employed in live cell imaging. […] In the presence of FA, a reversible condensation event yielded an iminium intermediate which can undergo a charge-promoted [3,3]-sigmatropic rearrangement-hydrolysis sequence to expel the aryl nitro group and afford a highly fluorescent indole-3-carboxaldehyde product (ΦF=0.11) (Table 1). Of note, the aldehyde is strategically positioned at C3 such that after the reaction cascade, the N1 lone pair electrons can delocalize into the π-system rather than quench fluorescence via an acceptor-excited PeT (a-PeT) pathway. In this regard, silicon rhodol 3, without the carboxaldehyde, is non-fluorescent (Table 1).

C=CCC(NCc1ccc([N+](=O)[O-])cc1)c1cn(C)c2cc(C)c(C3=C4C=CC(=O)C=C4[Si](C)(C)c4c3cc3c5c4CCCN5CCC3)cc12 (stereo not shown) [FP1]
fluorescence turn-on (flow cytometry) (NS1 cells; NS1, 0.25 mM FA): 42% | fluorescence turn-on (flow cytometry) (NS1 cells; NS1, 0.5 mM FA): 50% | fold increase by flow cytometry (NS1 cells; NS1, 5 mM FA): 4.2 fold | fold turn-on, median APC-A fluorescence intensity (flow cytometry) (HEK293TN cells [1]): ~2.5 fold | fold fluorescence increase (time-lapse imaging) ([2]; NS1, 1 μM FP1, on-stage addition of 1 mM FA at 25° C., 2 hrs): 1.3 fold | fold increase in fluorescence intensity (confocal) ([2]; NS1, 2 μM FP1, 1 mM FA, 1 hr): 0 fold | fold increase in fluorescence intensity (confocal) ([2]; NS1, 2 μM FP1, 1 mM FA, 2 hrs): 1.1 fold | fold increase in fluorescence intensity (confocal) ([2]; NS1, 2 μM FP1, 1 mM FA, 3 hrs): 1.6 fold | fold increase in fluorescence intensity (confocal) ([2]; NS1, 2 μM FP1, 2.5 mM FA, 1 hr): 1.3 fold | fold increase in fluorescence intensity (confocal) ([2]; NS1, 2 μM FP1, 2.5 mM FA, 2 hrs): 1.5 fold | fold increase in fluorescence intensity (confocal) ([2]; NS1, 2 μM FP1, 2.5 mM FA, 3 hrs): 2.0 fold | fold increase in fluorescence intensity (confocal) ([2]; NS1, 2 μM FP1, 5 mM FA, 1 hr): 1.8 fold | fold increase in fluorescence intensity (confocal) ([2]; NS1, 2 μM FP1, 5 mM FA, 2 hrs): 2.0 fold | fluorescence increase (confocal) ([2]; NS1, 0.25 mM FA, 37° C., 3 hrs): 16% | signal enhancement (confocal) ([2]; NS1, 0.5 mM FA, 37° C., 3 hrs): 38% | fold increase in fluorescence intensity (confocal) (HEK293TN cells [3]; 2 μM FP1, 1 mM FA, 1 hr): 1.2 fold | fold increase in fluorescence intensity (confocal) (HEK293TN cells [3]; 2 μM FP1, 1 mM FA, 2 hrs): 1.3 fold | fold increase in fluorescence intensity (confocal) (HEK293TN cells [3]; 2 μM FP1, 1 mM FA, 3 hrs): 1.6 fold | fold increase in fluorescence intensity (confocal) (HEK293TN cells [3]; 2 μM FP1, 2.5 mM FA, 1 hr): 1.2 fold | fold increase in fluorescence intensity (confocal) (HEK293TN cells [3]; 2 μM FP1, 2.5 mM FA, 2 hrs): 1.7 fold | fold increase in fluorescence intensity (confocal) (HEK293TN cells [3]; 2 μM FP1, 2.5 mM FA, 3 hrs): 2.2 fold | fold increase in fluorescence intensity (confocal) (HEK293TN cells [3]; 2 μM FP1, 5 mM FA, 1 hr): 2.1 fold | fold increase in fluorescence intensity (confocal) (HEK293TN cells [3]; 2 μM FP1, 5 mM FA, 2 hrs): 2.6 fold | fold increase in fluorescence intensity (confocal) (HEK293TN cells [3]; 2 μM FP1, 5 mM FA, 3 hrs): ~3 fold and 2.9 fold and 2.8 fold | Φ (quantum efficiency, ΦF) [4]: undetectable levels | ε [4]: 29000 M⁻¹ cm⁻¹ | λabs [4]: 620 nm | λem [4]: 649 nm
